From ChEMBL document CHEMBL4665640, “Structure-Activity Relationship Studies of 3- or 4-Pyridine Derivatives of DS-6930” (ACS Med Chem Lett, 2019)

Key:
[1] = Microsomal stability in monkey liver microsomes assessed as parent compound remaining after 30 mins; assay type: ADME, Macaca mulatta, Microsome; settings: rhesus monkey, read-out: Stabilty
[2] = Bioavailability in cynomolgus monkey at 1 mg/kg, iv by LC-MS/MS analysis; assay type: ADME, organism-based, Macaca fascicularis; settings: in vivo
[3] = Clearance in cynomolgus monkey at 1 mg/kg, iv by LC-MS/MS analysis; assay type: ADME, organism-based, Macaca fascicularis; settings: in vivo
[4] = 1-octanol/phosphate buffer distribution coefficient, log D of the compound at pH 7.4 measured after 30 mins by HPLC-LC/MS based shake flask method; assay type: physicochemical
[5] = Microsomal stability in human liver microsomes assessed as parent compound remaining after 30 mins; assay type: ADME, Microsome; settings: read-out: Stabilty
[6] = Half life in cynomolgus monkey at 3 mg/kg, po by LC-MS/MS analysis; assay type: ADME, organism-based, Macaca fascicularis; settings: in vivo
[7] = Half life in mouse at 3 mg/kg, po by LC-MS/MS analysis; assay type: ADME, organism-based; settings: in vivo
[8] = Volume of distribution at steady state in rat at 1 mg/kg, iv by LC-MS/MS analysis; assay type: ADME, organism-based; settings: in vivo, read-out: Vdss
[9] = Tmax in mouse at 3 mg/kg, po by LC-MS/MS analysis; assay type: ADME, organism-based; settings: in vivo
[10] = Clearance in mouse at 1 mg/kg, iv by LC-MS/MS analysis; assay type: ADME, organism-based; settings: in vivo
[11] = Clearance in rat at 1 mg/kg, iv by LC-MS/MS analysis; assay type: ADME, organism-based; settings: in vivo
[12] = Cmax in mouse at 3 mg/kg, po by LC-MS/MS analysis; assay type: ADME, organism-based; design: route oral, dose 3 mg/kg; settings: in vivo
[13] = Tmax in cynomolgus monkey at 3 mg/kg, po by LC-MS/MS analysis; assay type: ADME, organism-based, Macaca fascicularis; settings: in vivo
[14] = Microsomal stability in rat liver microsomes assessed as parent compound remaining after 30 mins; assay type: ADME, Microsome; settings: read-out: Stabilty
[15] = Volume of distribution at steady state in cynomolgus monkey at 1 mg/kg, iv by LC-MS/MS analysis; assay type: ADME, organism-based, Macaca fascicularis; settings: in vivo, read-out: Vdss
[16] = AUClast in rat at 3 mg/kg, po by LC-MS/MS analysis; assay type: ADME, organism-based; design: route oral, time 0 - last, dose 3 mg/kg; settings: in vivo
[17] = AUClast in mouse at 3 mg/kg, po by LC-MS/MS analysis; assay type: ADME, organism-based; design: time 0 - last, route oral, dose 3 mg/kg; settings: in vivo
[18] = AUClast in cynomolgus monkey at 3 mg/kg, po by LC-MS/MS analysis; assay type: ADME, organism-based, Macaca fascicularis; design: time 0 - last, route oral, dose 3 mg/kg; settings: in vivo
[19] = Tmax in rat at 3 mg/kg, po by LC-MS/MS analysis; assay type: ADME, organism-based; settings: in vivo
[20] = Bioavailability in rat at 1 mg/kg, iv by LC-MS/MS analysis; assay type: ADME, organism-based; settings: in vivo
[21] = Cmax in cynomolgus monkey at 3 mg/kg, po by LC-MS/MS analysis; assay type: ADME, organism-based, Macaca fascicularis; design: route oral, dose 3 mg/kg; settings: in vivo
[22] = Cmax in rat at 3 mg/kg, po by LC-MS/MS analysis; assay type: ADME, organism-based; design: route oral, dose 3 mg/kg; settings: in vivo
[23] = Bioavailability in mouse at 1 mg/kg, iv by LC-MS/MS analysis; assay type: ADME, organism-based; settings: in vivo
[24] = Volume of distribution at steady state in mouse at 1 mg/kg, iv by LC-MS/MS analysis; assay type: ADME, organism-based; settings: in vivo, read-out: Vdss
[25] = Half life in rat at 3 mg/kg, po by LC-MS/MS analysis; assay type: ADME, organism-based; settings: in vivo

`Cc1cnc(Oc2ccc3nc(COc4cccc(C(=O)O)c4)n(C)c3c2)c(C)c1` showed a remaining at 0.5 h [1] of 80%, a bioavailability [2] of 89% and a clearance [3] of 2.06 mL/min/kg.

In the case of `CCc1cc(Oc2ccc3nc(COc4cccc(C(=O)O)c4)n(C)c3c2)ccn1`, the logD at 0.5 h [4] is reported as 1.3 and the remaining at 0.5 h [5] is reported as 88%.

Compound `Cc1ccc(Oc2ccc3nc(COc4cccc(C(=O)O)c4)n(C)c3c2F)c(C)n1` has a logD at 0.5 h [4] of 1.6, a remaining at 0.5 h [1] of 100% and a half-life [6] of 9.34 h. It also gave a half-life [7] of 4.35 h, a Vd [8] of 0.27 L/kg and a Tmax [9] of 0.5 h. For the same compound, the bioavailability [2] was 76%, the clearance [10] was 4.91 mL/min/kg and the clearance [3] was 0.4 mL/min/kg. For the same compound, the clearance [11] was 1.29 mL/min/kg, the Cmax [12] was 1290 ng/mL and the Tmax [13] was 0.5 h. For the same compound, the remaining at 0.5 h [5] was 100%, the remaining at 0.5 h [14] was 100% and the Vd [15] was 0.15 L/kg. For the same compound, the AUC(0-t) [16] was 28000 ng·h/mL, the AUC(0-t) [17] was 2070 ng·h/mL and the AUC(0-t) [18] was 128000 ng·h/mL. It also gave a Tmax [19] of 2.25 h, a bioavailability [20] of 74% and a Cmax [21] of 28800 ng/mL. It also gave a Cmax [22] of 3490 ng/mL, a bioavailability [23] of 21% and a Vd [24] of 0.62 L/kg. For the same compound, the half-life [25] was 3.45 h.

Work on `COc1nc(C)ccc1Oc1ccc2nc(COc3cccc(C(=O)O)c3)n(C)c2c1` yielded a logD at 0.5 h [4] of 1.4.

In the case of `Cc1cncc(Oc2ccc3nc(COc4cccc(C(=O)O)c4)n(C)c3c2)c1`, the logD at 0.5 h [4] is reported as 1.

With `Cc1ccc(Oc2ccc3nc(COc4cccc(C(=O)O)c4)n(C)c3c2C)c(C)n1` the logD at 0.5 h [4] was 1.8.

Work on `Cc1ccc(Oc2cc(C)c3nc(COc4cccc(C(=O)O)c4)n(C)c3c2)c(C)n1` yielded a logD at 0.5 h [4] of 1.7 and a remaining at 0.5 h [5] of 100%.

`CCOc1cc(Oc2ccc(C)nc2C)cc2c1nc(COc1cccc(C(=O)O)c1)n2C` gave a logD at 0.5 h [4] of 1.6 and a remaining at 0.5 h [5] of 100%.

`Cc1cc(Oc2ccc3nc(COc4cccc(C(=O)O)c4)n(C)c3c2)ccn1` showed a logD at 0.5 h [4] of 0.9 and a remaining at 0.5 h [5] of 100%.

In the case of `COc1cncc(Oc2ccc3nc(COc4cccc(C(=O)O)c4)n(C)c3c2)c1`, the logD at 0.5 h [4] is reported as 0.9.

Compound `Cc1ccc(Oc2ccc3nc(COc4cccc(C(=O)O)c4)n(C)c3c2)c(C)n1` has a logD at 0.5 h [4] of 1.3, a remaining at 0.5 h [1] of 100% and a remaining at 0.5 h [5] of 100%. The remaining at 0.5 h [14] was 100%.

With `CCOc1cc(Oc2ccnc(OC)c2)cc2c1nc(COc1cccc(C(=O)O)c1)n2C` the logD at 0.5 h [4] was 1.7 and the remaining at 0.5 h [5] was 100%.

`COc1cc(Oc2cc(C)c3nc(COc4cccc(C(=O)O)c4)n(C)c3c2)ccn1` gave a logD at 0.5 h [4] of 1.7 and a remaining at 0.5 h [5] of 100%.

`Cc1ccc(Oc2ccc3nc(COc4cccc(C(=O)O)c4)n(C)c3c2)cn1` gave a logD at 0.5 h [4] of 0.8 and a remaining at 0.5 h [5] of 87%.

`COc1cc(Oc2ccc3nc(COc4cccc(C(=O)O)c4)n(C)c3c2)ccn1` showed a logD at 0.5 h [4] of 1.3, a remaining at 0.5 h [1] of 100% and a remaining at 0.5 h [5] of 98%. It also gave a remaining at 0.5 h [14] of 100%.

`COc1cc(Oc2ccc3nc(COc4cccc(C(=O)O)c4)n(C)c3c2F)ccn1` gave a logD at 0.5 h [4] of 1.7 and a remaining at 0.5 h [5] of 97%.

Work on `COc1cc(Oc2cc(OC(C)C)c3nc(COc4cccc(C(=O)O)c4)n(C)c3c2)ccn1` yielded a logD at 0.5 h [4] of 2, a remaining at 0.5 h [1] of 94% and a remaining at 0.5 h [5] of 97%. For the same compound, the remaining at 0.5 h [14] was 91%.
